Reference: patent US7553966B2, “Glucocorticoid mimetics, methods of making them, pharmaceutical compositions, and uses thereof” (Boehringer Ingelheim Pharmaceuticals, Inc., priority 2002, dated 2009)

Molecular target: T1, human glucocorticoid receptor (GR) complex (Homo sapiens, UniProt P04150)
T1 construct: made in house; host or cells: insect expression system (baculovirus lysate)
T1 sequence (P04150 1-777): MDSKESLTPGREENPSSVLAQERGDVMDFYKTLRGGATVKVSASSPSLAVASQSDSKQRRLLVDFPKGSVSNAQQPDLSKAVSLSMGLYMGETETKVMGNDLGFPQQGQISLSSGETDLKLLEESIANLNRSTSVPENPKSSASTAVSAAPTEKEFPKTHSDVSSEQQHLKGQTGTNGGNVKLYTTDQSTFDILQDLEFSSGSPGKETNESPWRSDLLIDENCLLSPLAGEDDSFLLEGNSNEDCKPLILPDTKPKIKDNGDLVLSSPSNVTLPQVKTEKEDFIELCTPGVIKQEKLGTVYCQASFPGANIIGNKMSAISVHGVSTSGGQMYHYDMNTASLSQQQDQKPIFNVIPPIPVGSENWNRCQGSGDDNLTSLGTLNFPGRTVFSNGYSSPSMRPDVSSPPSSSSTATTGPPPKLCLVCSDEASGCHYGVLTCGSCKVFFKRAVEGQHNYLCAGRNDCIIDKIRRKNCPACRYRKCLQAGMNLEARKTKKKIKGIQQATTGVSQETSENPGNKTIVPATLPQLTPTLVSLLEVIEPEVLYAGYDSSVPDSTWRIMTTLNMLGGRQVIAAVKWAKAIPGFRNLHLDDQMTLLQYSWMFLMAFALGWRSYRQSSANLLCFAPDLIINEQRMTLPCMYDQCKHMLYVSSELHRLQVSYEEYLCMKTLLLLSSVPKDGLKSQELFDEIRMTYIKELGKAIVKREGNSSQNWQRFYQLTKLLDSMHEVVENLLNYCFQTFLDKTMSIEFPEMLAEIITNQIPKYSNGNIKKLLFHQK
Experiment: Glucocorticoid Receptor Competitive Binding Assay (fluorescence polarization, TAMRA-labeled dexamethasone probe)
Settings: qualitative statement; competition with TAMRA-labeled dexamethasone
Description: Compounds of the invention were evaluated for binding to the steroid receptor by a fluorescence polarization competitive binding assay.
A. Glucocorticoid Receptor Competitive Binding Assay
Step 1. Characterization of the Fluorescent Probe
The wavelengths for maximum excitation and emission of the fluorescent probe should first be measured. An example of such a probe is rhodamine (TAMRA)-labeled dexamethasone.
The affinity of the probe for the steroid receptor was then determined in a titration experiment. The fluorescence polarization value of the probe in assay buffer was measured on an SLM-8100 fluorometer using the excitation and emission maximum values described above. Aliquots of expression vector lysate were added and fluorescence polarization was measured after each addition until no further change in polarization value was observed. Non-linear least squares regression analysis was used to calculate the dissociation constant of the probe from the polarization values obtained for lysate binding to the probe.
Step 2. Screening for Inhibitors of Probe Binding
This assay uses fluorescence polarization (FP) to quantitate the ability of test compounds to compete with tetramethyl rhodamine (TAMRA)-labeled dexamethasone for binding to a human glucocorticoid receptor (GR) complex prepared from an insect expression system. The assay buffer was: 10 mM TES, 50 mM KCl, 20 mM Na2MoO4. 2H2O, 1.5 mM EDTA, 0.04% w/v CHAPS, 10% v/v glycerol, 1 mM dithiothreitol, pH 7.4. Test compounds were dissolved to 1 mM in neat DMSO and then further diluted to 10× assay concentration in assay buffer supplemented with 10% v/v DMSO. Test compounds were serially diluted at 10× assay concentrations in 10% DMSO-containing buffer in 96-well polypropylene plates. […] Positive controls were reaction mixtures containing no test compound; negative controls (blanks) were reaction mixtures containing 0.7 μM to 2 μM dexamethasone. […] IC50 values were determined by iterative non-linear curve fitting of the FP signal data to a 4-parameter logistic equation.

Compound	activity in the GR binding assay
CC(C)(CC(O)(Cc1cc2ccncc2[nH]1)C(F)(F)F)c1cccc(F)c1 (centres unmarked) [1,1,1-Trifluoro-4-(3-fluorophenyl)-4-methyl-2-(1H-pyrrolo[2,3-c]pyridin-2-ylmethyl)pentan-2-ol]	potent activity
COc1ccc(F)cc1C(C)(C)CC(O)(Cn1cc(C)nc1-c1ccccc1)C(F)(F)F (centres unmarked) [2-(2-Phenyl-4-methylimidazol-1-ylmethyl)-1,1,1-trifluoro-4-(5-fluoro-2-methoxyphenyl)-4-methylpentan-2-ol]	potent activity
COc1cccc(C(C)(C)CC(O)(Cc2cc3cc(C(F)(F)F)ccc3[nH]2)C(F)(F)F)c1 (centres unmarked) [1,1,1-Trifluoro-4-(3-methoxyphenyl)-4-methyl-2-(5-trifluoromethyl-1H-indol-2-ylmethyl)pentan-2-ol]	potent activity
CCC(O)(Cc1cc2ccccc2[nH]1)CC(C)(C)c1cc(F)ccc1OC (centres unmarked) [5-(5-Fluoro-2-methoxyphenyl)-3-(indol-2-ylmethyl)-5-methylhexan-3-ol]	potent activity
COc1ccc(C(C)(C)CC(O)(Cc2cc3ccccc3[nH]2)C(F)(F)F)cc1 (centres unmarked) [1,1,1-Trifluoro-2-(1H-indol-2-ylmethyl)-4-(4-methoxyphenyl)-4-methylpentan-2-ol]	potent activity
COc1cccc(C(C)(C)CC(O)(Cc2cc3cc(C#N)ccc3[nH]2)C(F)(F)F)c1 (centres unmarked) [2-[2-Hydroxy-4-(3-methoxyphenyl)-4-methyl-2-trifluoromethylpentyl]-1H-indole-5-carbonitrile]	potent activity
COC(=O)c1ccc2[nH]c(CC(O)(CC(C)(C)c3cc(F)ccc3OC)C(F)(F)F)cc2c1 (centres unmarked) [2-[4-(5-Fluoro-2-methoxyphenyl)-2-hydroxy-4-methyl-2-trifluoromethylpentyl]-1H-indole-5-carboxylic acid methyl ester]	potent activity
Cc1ccc(F)cc1C(C)(C)CC(O)(Cc1nc2cccc(C)c2[nH]1)C(F)(F)F (centres unmarked) [1,1,1-Trifluoro-4-(5-fluoro-2-methylphenyl)-4-methyl-2-(7-methyl-1H-benzoimidazol-2-ylmethyl)pentan-2-ol]	potent activity
CC(C)(CC(O)(Cc1cc2cnccc2[nH]1)C(F)(F)F)c1ccc(F)cc1O (centres unmarked) [5-Fluoro-2-[4,4,4-trifluoro-3-hydroxy-1,1-dimethyl-3-(1H-pyrrolo[3,2-c]pyridin-2-ylmethyl)butyl]phenol]	potent activity
CC(C)(CC(O)(Cc1ccnc2ccccc12)C(F)(F)F)c1ccsc1 (centres unmarked) [1,1,1-Trifluoro-4-methyl-2-quinolin-4-ylmethyl-4-thiophen-3-ylpentan-2-ol]	potent activity
CC(C)(CC(O)(Cc1ccnc2ccccc12)C(F)(F)F)c1cc(Br)cc2c1OCCC2 (centres unmarked) [4-(6-Bromochroman-8-yl)-1,1,1-trifluoro-4-methyl-2-quinolin-4-ylmethylpentan-2-ol]	potent activity
CC(C)(CC(O)(Cc1cc2cccc(F)c2[nH]1)C(F)(F)F)c1cccc2c1OCC2 (centres unmarked) [4-(2,3-Dihydrobenzofuran-7-yl)-1,1,1-trifluoro-2-(7-fluoro-1H-indol-2-ylmethyl)4-methylpentan-2-ol]	potent activity
CC(C)(CC(O)(Cc1cc2cccc(F)c2[nH]1)C(F)(F)F)c1ccccc1 (centres unmarked) [1,1,1-Trifluoro-2-(7-fluoro-1H-indol-2-ylmethyl)-4-methyl-4-phenylpentan-2-ol]	potent activity
CC(C)(CC(O)(Cc1cc2ccccc2[nH]1)C(F)(F)F)c1cc(C#N)cc2c1OCC2 (centres unmarked) [4-(2,3-dihydro-5-cyanobenzofuran-7-yl)-1,1,1-trifluoro-2-(1H-indol-2-ylmethyl)-4-methylpentan-2-ol]	potent activity
COc1c(C(C)(C)CC(O)(Cc2ccnc3ccccc23)C(F)(F)F)ccc2ccccc12 (centres unmarked) [1,1,1-Trifluoro-4-(1-methoxynaphthalen-2-yl)-4-methyl-2-quinolin-4-ylmethylpentan-2-ol]	potent activity
CC(C)(CC(O)(Cc1cc2ccccc2[nH]1)C(F)(F)F)c1ccc2ccccc2c1 (centres unmarked) [1,1,1-Trifluoro-2-(1H-indol-2-ylmethyl)-4-methyl-4-naphthalen-2-ylpentan-2-ol]	potent activity
Cc1c(CC(O)(CC(C)(C)c2cc(F)ccc2O)C(F)(F)F)[nH]c2cnccc12 (centres unmarked) [4-Fluoro-2-[4,4,4-trifluoro-3-hydroxy-1,1-dimethyl-3-(3-methyl-1H-pyrrolo[2,3-c]pyridin-2-ylmethyl)butyl]phenol]	potent activity
CC(C)(CC(O)(Cc1[nH]c2ccccc2c1C#N)C(F)(F)F)c1ccc(F)cc1 (centres unmarked) [2-[4-(4-Fluorophenyl)-2-hydroxy-4-methyl-2-trifluoromethylpentyl]-1H-indole-3-carbonitrile]	potent activity
COc1ccc(F)cc1C(C)(C)CC(O)(Cc1nc2cc(C)cc(C)c2[nH]1)C(F)(F)F (centres unmarked) [2-(5,7-Dimethyl-1H-benzoimidazol-2-ylmethyl)-1,1,1-trifluoro-4-(5-fluoro-2-methoxyphenyl)-4-methylpentan-2-ol]	potent activity

Now from value to compound:

activity in the GR binding assay	Compound
potent activity	CC(C)(CC(O)(Cc1ccnc2ccccc12)C(F)(F)F)c1ccc2c(c1)CCO2 (centres unmarked) [4-(2,3-Dihydrobenzofuran-5-yl)-1,1,1-trifluoro-4-methyl-2-quinolin-4-ylmethylpentan-2-ol]
potent activity	Cc1ccc(C(C)(C)CC(O)(Cc2ccnc3ccccc23)C(F)(F)F)cc1 (centres unmarked) [1,1,1-Trifluoro-4-methyl-2-quinolin-4-ylmethyl-4-p-tolylpentan-2-ol]
potent activity	COc1ccc(F)cc1C(C)(C)CC(O)(Cc1ccnc(Cl)c1)C(F)(F)F (centres unmarked) [1,1,1-Trifluoro-4-(5-fluoro-2-methoxyphenyl)-4-methyl-2-(2-chloropyridin-4-ylmethyl)pentan-2-ol]
potent activity	CC(C)(CC(O)(Cc1ccnc2ccccc12)C(F)(F)F)c1cccc2c1OCCC2 (centres unmarked) [4-Chroman-8-yl-1,1,1-trifluoro-4-methyl-2-quinolin-4-ylmethylpentan-2-ol]
potent activity	CC(C)(CC(O)(Cc1cc2cccc(F)c2[nH]1)C(F)(F)F)c1ccc(F)cc1O (centres unmarked) [5-Fluoro-2-[4,4,4-trifluoro-3-(7-fluoro-1H-indol-2-ylmethyl)-3-hydroxy-1,1-dimethylbutyl]phenol]
potent activity	CC(C)(CC(O)(Cc1[nH]c2ccccc2c1C#N)C(F)(F)F)c1cccc(F)c1 (centres unmarked) [2-[4-(3-Fluorophenyl)-2-hydroxy-4-methyl-2-trifluoromethylpentyl]-1H-indole-3-carbonitrile]
potent activity	COc1ccc(F)cc1C(C)(C)CC(O)(Cc1cc2ncccc2[nH]1)C(F)(F)F (centres unmarked) [1,1,1-Trifluoro-4-(5-fluoro-2-methoxyphenyl)-4-methyl-2-(1H-pyrrolo[3,2-b]pyridin-2-ylmethyl)pentan-2-ol]
potent activity	CCc1cccc(C(C)(C)CC(O)(Cc2ccnc3ccccc23)C(F)(F)F)c1OC (centres unmarked) [4-(3-Ethyl-2-methoxyphenyl)-1,1,1-trifluoro-4-methyl-2-quinolin-4-ylmethylpentan-2-ol]
potent activity	Cc1ccc(C(C)(C)CC(O)(Cc2cc3ccccc3[nH]2)C(F)(F)F)cc1 (centres unmarked) [1,1,1-Trifluoro-2-(1H-indol-2-ylmethyl)-4-methyl-4-p-tolylpentan-2-ol]
potent activity	CC(C)(CC(O)(Cc1cc2cc(C#N)ccc2[nH]1)C(F)(F)F)c1cccc(F)c1 (centres unmarked) [2-[4-(3-Fluorophenyl)-2-hydroxy-4-methyl-2-trifluoromethylpentyl]-1H-indole-5-carbonitrile]
